Experiments:
Type in all cases: functional
SF-268 = assay: Growth inhibition of human SF268 cells by sulforhodamine B assay
[1] = Growth inhibition of human HCC2998 cells by sulforhodamine B assay
NCI-H522 = assay: Growth inhibition of human NCI-H522 cells by sulforhodamine B assay
HOP-62 [2] = assay: Growth inhibition of human HOP62 cells by sulforhodamine B assay
RPMI-8226 = assay: Growth inhibition of human RPMI8226 cells by sulforhodamine B assay
K562 = assay: Growth inhibition of human K562 cells by sulforhodamine B assay
SK-MEL-2 = assay: Growth inhibition of human SK-MEL-2 cells assessed as cell growth at 10^-8 M by sulforhodamine B assay; conditions: read-out: Activity
U-251 [3] = assay: Growth inhibition of human U251 cells assessed as cell growth at 10^-8 M by sulforhodamine B assay; conditions: read-out: Activity
NCI-H226 = assay: Growth inhibition of human NCI-H226 cells assessed as cell growth at 10^-8 M by sulforhodamine B assay; conditions: read-out: Activity
HL-60(TB) = assay: Growth inhibition of human HL-60(TB) cells assessed as cell growth at 10^-8 M by sulforhodamine B assay; conditions: read-out: Activity
786-0 = assay: Growth inhibition of human 786-0 cells by sulforhodamine B assay
[4] = Growth inhibition of human NCI-ADR-RES cells by sulforhodamine B assay
SK-MEL-28 = assay: Growth inhibition of human SK-MEL-28 cells by sulforhodamine B assay
SF-539 = assay: Growth inhibition of human SF539 cells by sulforhodamine B assay
RXF 393 [5] = assay: Growth inhibition of human RXF393 cells assessed as cell growth at 10^-4 M by sulforhodamine B assay; conditions: read-out: Activity
ACHN = assay: Growth inhibition of human ACHN cells assessed as cell growth at 10^-4 M by sulforhodamine B assay; conditions: read-out: Activity
OVCAR-3 [6] = assay: Growth inhibition of human OVCAR3 cells assessed as cell growth at 10^-4 M by sulforhodamine B assay; conditions: read-out: Activity
UACC-257 = assay: Growth inhibition of human UACC257 cells assessed as cell growth at 10^-4 M by sulforhodamine B assay; conditions: read-out: Activity
SNB-75 [7] = assay: Growth inhibition of human SNB75 cells assessed as cell growth at 10^-4 M by sulforhodamine B assay; conditions: read-out: Activity
MCF7 = assay: Growth inhibition of human MCF7 cells assessed as cell growth at 10^-6 M by sulforhodamine B assay; conditions: read-out: Activity
OVCAR-8 = assay: Growth inhibition of human OVCAR8 cells assessed as cell growth at 10^-6 M by sulforhodamine B assay; conditions: read-out: Activity
UACC-62 = assay: Growth inhibition of human UACC62 cells assessed as cell growth at 10^-6 M by sulforhodamine B assay; conditions: read-out: Activity
U-251 [8] = assay: Growth inhibition of human U251 cells assessed as cell growth at 10^-6 M by sulforhodamine B assay; conditions: read-out: Activity
KM12 = assay: Growth inhibition of human KM12 cells assessed as cell growth at 10^-6 M by sulforhodamine B assay; conditions: read-out: Activity
COLO 205 = assay: Growth inhibition of human COLO205 cells assessed as cell growth at 10^-6 M by sulforhodamine B assay; conditions: read-out: Activity
HOP-62 [9] = assay: Growth inhibition of human HOP62 cells assessed as cell growth at 10^-6 M by sulforhodamine B assay; conditions: read-out: Activity
SR = assay: Growth inhibition of human SR cells assessed as cell growth at 10^-6 M by sulforhodamine B assay; conditions: read-out: Activity
OVCAR-5 = assay: Growth inhibition of human OVCAR5 cells assessed as cell growth at 10^-7 M by sulforhodamine B assay; conditions: read-out: Activity
OVCAR-3 [10] = assay: Growth inhibition of human OVCAR3 cells assessed as cell growth at 10^-7 M by sulforhodamine B assay; conditions: read-out: Activity
U-251 [11] = assay: Growth inhibition of human U251 cells assessed as cell growth at 10^-7 M by sulforhodamine B assay; conditions: read-out: Activity
SNB-75 [12] = assay: Growth inhibition of human SNB75 cells assessed as cell growth at 10^-7 M by sulforhodamine B assay; conditions: read-out: Activity
SNB-19 = assay: Growth inhibition of human SNB19 cells assessed as cell growth at 10^-7 M by sulforhodamine B assay; conditions: read-out: Activity
NCI-H460 = assay: Growth inhibition of human NCI-H460 cells assessed as cell growth at 10^-7 M by sulforhodamine B assay; conditions: read-out: Activity
NCI-H322M = assay: Growth inhibition of human NCI-H322M cells assessed as cell growth at 10^-7 M by sulforhodamine B assay; conditions: read-out: Activity
DU-145 = assay: Growth inhibition of human DU145 cells assessed as cell growth at 10^-8 M by sulforhodamine B assay; conditions: read-out: Activity
PC-3 = assay: Growth inhibition of human PC3 cells assessed as cell growth at 10^-8 M by sulforhodamine B assay; conditions: read-out: Activity
UO-31 = assay: Growth inhibition of human UO31 cells assessed as cell growth at 10^-8 M by sulforhodamine B assay; conditions: read-out: Activity
RXF 393 [13] = assay: Growth inhibition of human RXF393 cells assessed as cell growth at 10^-8 M by sulforhodamine B assay; conditions: read-out: Activity
[14] = read-out: LC50 (the source's name)
[15] = read-out: pLC50 (the source's name) (converted)

With `C/C=C(/C)C(=O)O[C@@H]1CC(C)(C)C[C@H]2C3=CC[C@@H]4[C@@]5(C)CC[C@H](O)C(C)(C)[C@@H]5CC[C@@]4(C)[C@]3(C)CC[C@@]12C(=O)O` [Reduced Lantadene A] as the molecule, how does the GI50 (SF-268; read-out: GI50) read?
Its GI50 is 2160 nM.

And the TGI (SF-268; read-out: TGI)?
Its TGI is 4.42 µM.

What about the GI50 (SF-268; read-out: pGI50 (converted)) of the same molecule?
The GI50 was 2140 nM.

And the TGI (SF-268; read-out: pTGI (converted))?
The TGI was 4.47 µM.

What about the GI50 ([1]; HCC 2998, read-out: GI50) of the same molecule?
Its GI50 is 1880 nM.

What about the CC50 ([1]; HCC 2998, read-out: LC50 (the source's name)) of the same molecule?
The CC50 was 6.43 µM.

What about the TGI ([1]; HCC 2998, read-out: TGI) of the same molecule?
The TGI was 3.47 µM.

What about the GI50 ([1]; HCC 2998, read-out: pGI50 (converted)) of the same molecule?
The GI50 was 1860 nM.

And the CC50 ([1]; HCC 2998, read-out: pLC50 (the source's name) (converted))?
The CC50 was 6.46 µM.

And the TGI ([1]; HCC 2998, read-out: pTGI (converted))?
Its TGI is 3.47 µM.

And the GI50 (NCI-H522; read-out: GI50)?
The GI50 was 2180 nM.

What about the CC50 (NCI-H522; [14]) of the same molecule?
Its CC50 is 32.4 µM.

What about the TGI (NCI-H522; read-out: TGI) of the same molecule?
Its TGI is 5.42 µM.

And the GI50 (NCI-H522; read-out: pGI50 (converted))?
The GI50 was 2190 nM.

What about the CC50 (NCI-H522; [15]) of the same molecule?
Its CC50 is 32.4 µM.

What about the TGI (NCI-H522; read-out: pTGI (converted)) of the same molecule?
The TGI was 5.37 µM.

What about the GI50 (HOP-62 [2]; read-out: GI50) of the same molecule?
Its GI50 is 1870 nM.

What about the TGI (HOP-62 [2]; read-out: TGI) of the same molecule?
Its TGI is 3.55 µM.

What about the GI50 (HOP-62 [2]; read-out: pGI50 (converted)) of the same molecule?
The GI50 was 1860 nM.

And the TGI (HOP-62 [2]; read-out: pTGI (converted))?
The TGI was 3.55 µM.

And the GI50 (RPMI-8226; read-out: GI50)?
The GI50 was 1850 nM.

And the CC50 (RPMI-8226; [14])?
Its CC50 is greater than 100 µM.

What about the TGI (RPMI-8226; read-out: TGI) of the same molecule?
The TGI was 8.71 µM.

And the GI50 (RPMI-8226; read-out: pGI50 (converted))?
The GI50 was 1860 nM.

And the CC50 (RPMI-8226; [15])?
The CC50 was greater than 100 µM.

What about the TGI (RPMI-8226; read-out: pTGI (converted)) of the same molecule?
The TGI was 8.71 µM.

What about the GI50 (K562; read-out: GI50) of the same molecule?
Its GI50 is 2640 nM.

What about the LC50 (K562; read-out: LC50) of the same molecule?
The LC50 was greater than 100 µM.

What about the TGI (K562; read-out: TGI) of the same molecule?
Its TGI is 30.4 µM.

And the GI50 (K562; read-out: pGI50 (converted))?
Its GI50 is 2630 nM.

What about the LC50 (K562; read-out: pLC50 (converted)) of the same molecule?
The LC50 was greater than 100 µM.

And the TGI (K562; read-out: pTGI (converted))?
Its TGI is 30.2 µM.

What about the growth at 0.01 µM (SK-MEL-2) of the same molecule?
Its growth at 0.01 µM is 107%.

And the growth at 0.01 µM (U-251 [3])?
The growth at 0.01 µM was 96%.

And the growth at 0.01 µM (NCI-H226)?
Its growth at 0.01 µM is 91%.

And the growth at 0.01 µM (HL-60(TB))?
Its growth at 0.01 µM is 106%.

What about the GI50 (786-0; read-out: GI50) of the same molecule?
The GI50 was 1810 nM.

What about the CC50 (786-0; [14]) of the same molecule?
The CC50 was 6.44 µM.

And the TGI (786-0; read-out: TGI)?
Its TGI is 3.41 µM.

What about the GI50 (786-0; read-out: pGI50 (converted)) of the same molecule?
The GI50 was 1820 nM.

What about the CC50 (786-0; [15]) of the same molecule?
The CC50 was 6.46 µM.

And the TGI (786-0; read-out: pTGI (converted))?
The TGI was 3.39 µM.

And the GI50 ([4]; read-out: GI50)?
The GI50 was 2170 nM.

And the CC50 [4, 14]?
Its CC50 is greater than 100 µM.

What about the TGI ([4]; read-out: TGI) of the same molecule?
Its TGI is 5 µM.

And the GI50 ([4]; read-out: pGI50 (converted))?
The GI50 was 2190 nM.

And the CC50 [4, 15]?
Its CC50 is greater than 100 µM.

And the TGI ([4]; read-out: pTGI (converted))?
Its TGI is 5.01 µM.

What about the GI50 (SK-MEL-28; read-out: GI50) of the same molecule?
Its GI50 is 1900 nM.

And the TGI (SK-MEL-28; read-out: TGI)?
The TGI was 4.27 µM.

What about the GI50 (SK-MEL-28; read-out: pGI50 (converted)) of the same molecule?
The GI50 was 1910 nM.

What about the TGI (SK-MEL-28; read-out: pTGI (converted)) of the same molecule?
Its TGI is 4.27 µM.

And the GI50 (SF-539; read-out: GI50)?
Its GI50 is 3.37 µM.

And the CC50 (SF-539; [14])?
The CC50 was 56.3 µM.

What about the TGI (SF-539; read-out: TGI) of the same molecule?
Its TGI is 11.4 µM.

What about the GI50 (SF-539; read-out: pGI50 (converted)) of the same molecule?
Its GI50 is 3.39 µM.

And the CC50 (SF-539; [15])?
Its CC50 is 56.2 µM.

What about the TGI (SF-539; read-out: pTGI (converted)) of the same molecule?
The TGI was 11.5 µM.

And the growth at 100 µM (RXF 393 [5])?
The growth at 100 µM was -76%.

What about the growth at 100 µM (ACHN) of the same molecule?
Its growth at 100 µM is -69%.

And the growth at 100 µM (OVCAR-3 [6])?
The growth at 100 µM was -48%.

And the growth at 100 µM (UACC-257)?
The growth at 100 µM was -69%.

And the growth at 100 µM (SNB-75 [7])?
Its growth at 100 µM is -47%.

What about the growth at 1 µM (MCF7) of the same molecule?
The growth at 1 µM was 88%.

And the growth at 1 µM (OVCAR-8)?
The growth at 1 µM was 97%.

And the growth at 1 µM (UACC-62)?
Its growth at 1 µM is 78%.

What about the growth at 1 µM (U-251 [8]) of the same molecule?
The growth at 1 µM was 83%.

And the growth at 1 µM (KM12)?
Its growth at 1 µM is 69%.

And the growth at 1 µM (COLO 205)?
The growth at 1 µM was 104%.

And the growth at 1 µM (HOP-62 [9])?
Its growth at 1 µM is 99%.

And the growth at 1 µM (SR)?
The growth at 1 µM was 89%.

What about the growth at 0.1 µM (OVCAR-5) of the same molecule?
The growth at 0.1 µM was 103%.

What about the growth at 0.1 µM (OVCAR-3 [10]) of the same molecule?
Its growth at 0.1 µM is 112%.

What about the growth at 0.1 µM (U-251 [11]) of the same molecule?
The growth at 0.1 µM was 90%.

And the growth at 0.1 µM (SNB-75 [12])?
Its growth at 0.1 µM is 78%.

What about the growth at 0.1 µM (SNB-19) of the same molecule?
Its growth at 0.1 µM is 90%.

And the growth at 0.1 µM (NCI-H460)?
The growth at 0.1 µM was 99%.

What about the growth at 0.1 µM (NCI-H322M) of the same molecule?
The growth at 0.1 µM was 98%.

What about the growth at 0.01 µM (DU-145) of the same molecule?
The growth at 0.01 µM was 113%.

And the growth at 0.01 µM (PC-3)?
Its growth at 0.01 µM is 92%.

What about the growth at 0.01 µM (UO-31) of the same molecule?
The growth at 0.01 µM was 93%.

What about the growth at 0.01 µM (RXF 393 [13]) of the same molecule?
The growth at 0.01 µM was 93%.
